Results on 27 molecules are retold here after patent US10144732B2 (BIOGEN MA INC., priority 2014, dated 2018).

Structures can show the parent of a compound that is named as a salt.

This test concerns the target T1, Human ATX protein (Homo sapiens, UniProt Q13822).
T1 construct: made in house
The experiment in a line: ATX biochemical assay (FRET, FS-3 substrate). The conditions noted are these: FRET assay, FS-3 2 μM, ATX 1.0 μg/mL, 30 minutes preincubation, 2 hours reaction at room temperature; read-out: IC50. In short, it runs like this: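 In-house human ATX (1.0 μg/mL final) was preincubated with compound for 30 min at room temperature in Tris buffer pH 7.4 with 1 mg/mL fatty acid free-BSA. FS-3 substrate (2 μM final) was then hydrolysed for 2 hours at room temperature, protected from light, and read as fluorescence at ex 485/em 538 nm.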
What is called IC50 is the concentration needed to halve the response being measured. Consider `O=C(O)CCNCC(=O)N1CCc2c(C(F)(F)F)nn(Cc3ccc(Cl)cc3F)c2C1` [Example 13-32, 3-(2-(1-(4-Chloro-2-fluorobenzyl)-3-(trifluoromethyl)-4,5-dihydro-1H-pyrazolo[3,4-c]pyridin-6(7H)-yl)-2-oxoethylamino)propanoic acid TFA salt], for which the IC50 was at most 100 nM.

With `CC(C)(C)OC(=O)N1CCC(CC(=O)N2CCc3c(C(F)(F)F)nn(Cc4ccc(Cl)cc4F)c3C2)CC1C(F)(F)F` (stereo not drawn) [Example 8-7, tert-Butyl 4-(2-(1-(4-chloro-2-fluorobenzyl)-3-(trifluoromethyl)-4,5-dihydro-1H-pyrazolo[3,4-c]pyridin-6(7H)-yl)-2-oxoethyl)-2-(trifluoromethyl)piperidine-1-carboxylate], the IC50 is at most 100 nM.

As to `CN1CCC(CC(=O)N2CCc3c(C(F)(F)F)nn(Cc4ccc(F)cc4)c3C2)C1` (stereo not drawn) [Example 10-5, 1-(1-(4-Fluorobenzyl)-3-(trifluoromethyl)-4,5-dihydro-1H-pyrazolo[3,4-c]pyridin-6(7H)-yl)-2-(1-methylpyrrolidin-3-yl)ethanone], the IC50 is 100 to 250 nM.

In the case of `CC1(C(=O)O)CCC(CC(=O)N2CCc3c(C(F)(F)F)nn(Cc4ccc(Cl)cc4F)c3C2)CC1` (mixture of isomers) [Example 6-5, 4-(2-(1-(4-chloro-2-fluorobenzyl)-3-(trifluoromethyl)-4,5-dihydro-1H-pyrazolo[3,4-c]pyridin-6(7H)-yl)-2-oxoethyl)-1-methylcyclohexanecarboxylic acid], the IC50 is at most 100 nM.

For `O=C(C[C@H]1CC[C@H](C(=O)O)CC1)N1CCc2c(C(F)(F)F)nn(Cc3ccccc3)c2C1` [Example 7-11, trans-4-(2-(1-Benzyl-3-(trifluoromethyl)-4,5-dihydro-1H-pyrazolo[3,4-c]pyridin-6(7H)-yl)-2-oxoethyl)cyclohexanecarboxylic acid], the IC50 was at most 100 nM.

Take `CCOC(=O)C1CCC(CC(=O)N2CCc3c(C(F)(F)F)nn(Cc4ccccc4)c3C2)CC1` (stereo not drawn) [Example 1-13, Ethyl 4-(2-(1-benzyl-3-(trifluoromethyl)-4,5-dihydro-1H-pyrazolo[3,4-c]pyridin-6(7H)-yl)-2-oxoethyl)cyclohexanecarboxylate]: the IC50 is at most 100 nM.

Turning to `CN1CCCC(CC(=O)N2CCc3c(C(F)(F)F)nn(Cc4ccc(F)cc4)c3C2)C1` (stereo not drawn) [Example 11-1, 1-(1-(4-Fluorobenzyl)-3-(trifluoromethyl)-4,5-dihydro-1H-pyrazolo[3,4-c]pyridin-6(7H)-yl)-2-(1-methylpiperidin-3-yl)ethanone formate], the IC50 is at most 100 nM.

With `O=C(C[C@H]1CC[C@H](C(=O)O)CC1)N1CCc2c(C(F)(F)F)nn(Cc3cc(F)cc(Cl)c3)c2C1` [Example 5-3, trans-4-(2-(1-(3-chloro-5-fluorobenzyl)-3-(trifluoromethyl)-4,5-dihydro-1H-pyrazolo[3,4-c]pyridin-6(7H)-yl)-2-oxoethyl)cyclohexanecarboxylic acid], the half-maximal inhibitory concentration (IC50) was at most 100 nM.

For `O=C(O)CCCCC(=O)N1CCc2c(C(F)(F)F)nn(Cc3ccc(Cl)cc3F)c2C1` [Example 14-1, 6-(1-(4-Chloro-2-fluorobenzyl)-3-(trifluoromethyl)-4,5-dihydro-1H-pyrazolo[3,4-c]pyridin-6(7H)-yl)-6-oxohexanoic acid], the IC50 was at most 100 nM.

Regarding `CCOC(=O)[C@H]1CC[C@H](CC(=O)N2CCc3c(C(F)F)nn(Cc4ccc(F)cc4)c3C2)CC1` [Example 1-38, trans-Ethyl 4-(2-(3-(difluoromethyl)-1-(4-fluorobenzyl)-4,5-dihydro-1H-pyrazolo[3,4-c]pyridin-6(7H)-yl)-2-oxoethyl)cyclohexanecarboxylate], the IC50 was at most 100 nM.

For `O=C(C[C@H]1CC[C@@H](C(=O)O)CC1)N1CCc2c(C(F)(F)F)nn(Cc3cc(F)cc(Cl)c3)c2C1` [Example 5-4, cis-4-(2-(1-(3-chloro-5-fluorobenzyl)-3-(trifluoromethyl)-4,5-dihydro-1H-pyrazolo[3,4-c]pyridin-6(7H)-yl)-2-oxoethyl)cyclohexanecarboxylic acid], the IC50 was at most 100 nM.

For `COC(=O)CC1CN(CC(=O)N2CCc3c(C(F)(F)F)nn(Cc4ccc(F)cc4)c3C2)C1` [Example 12-19, Methyl 2-(1-(2-(1-(4-fluorobenzyl)-3-(trifluoromethyl)-4,5-dihydro-1H-pyrazolo[3,4-c]pyridin-6(7H)-yl)-2-oxoethyl)azetidin-3-yl)acetate TFA salt], the IC50 is at most 100 nM.

`Cc1ccc(Cn2nc(C(F)(F)F)c3c2CN(C(=O)C[C@H]2CC[C@H](C(=O)O)CC2)CC3)cc1` [Example 5-14, trans-4-(2-(1-(4-Methylbenzyl)-3-(trifluoromethyl)-4,5-dihydro-1H-pyrazolo[3,4-c]pyridin-6(7H)-yl)-2-oxoethyl)cyclohexanecarboxylic acid]: the IC50 was at most 100 nM.

As for `O=C(CN1CCCCC1)N1CCc2c(C(F)(F)F)nn(Cc3ccc(Cl)cc3F)c2C1` [Example 12-2, 1-(1-(4-Chloro-2-fluorobenzyl)-3-(trifluoromethyl)-4,5-dihydro-1H-pyrazolo[3,4-c]pyridin-6(7H)-yl)-2-(piperidin-1-yl)ethanone], the IC50 was at most 100 nM.

Consider `O=C(O[C@H]1CC[C@H](C(=O)O)CC1)N1CCc2c(C(F)(F)F)nn(Cc3ccc(Cl)cc3F)c2C1` [Example 7-10, trans-4-((1-(4-chloro-2-fluorobenzyl)-3-(trifluoromethyl)-4,5,6,7-tetrahydro-1H-pyrazolo[3,4-c]pyridine-6-carbonyl)oxy)cyclohexanecarboxylic acid], for which the IC50 was at most 100 nM.

As to `O=C(C[C@H]1CC[C@@H](N2CC(F)(F)C2)CC1)N1CCc2c(C(F)(F)F)nn(Cc3ccc(F)cc3)c2C1` [Example 22-7, 2-(cis-4-(3,3-Difluoroazetidin-1-yl)cyclohexyl)-1-(1-(4-fluorobenzyl)-3-(trifluoromethyl)-4,5-dihydro-1H-pyrazolo[3,4-c]pyridin-6(7H)-yl)ethanone TFA salt], the IC50 was at most 100 nM.

As for `O=C(CC1CNCCO1)N1CCc2c(C(F)(F)F)nn(Cc3ccc(Cl)cc3F)c2C1` (stereo not drawn) [Example 9-15, 1-(1-(4-Chloro-2-fluorobenzyl)-3-(trifluoromethyl)-4,5-dihydro-1H-pyrazolo[3,4-c]pyridin-6(7H)-yl)-2-(morpholin-2-yl)ethanone TFA salt], the IC50 is at most 100 nM.

In the case of `CCOC(=O)C1CCC(CC(=O)N2CCc3cnn(Cc4ccc(F)cc4)c3C2)CC1` (stereo not drawn) [Example 1-17, Ethyl 4-(2-(1-(4-fluorobenzyl)-4,5-dihydro-1H-pyrazolo[3,4-c]pyridin-6(7H)-yl)-2-oxoethyl)cyclohexanecarboxylate], the IC50 is at most 100 nM.

Turning to `O=C(O)CC1CCN(CC(=O)N2CCc3c(C(F)(F)F)nn(Cc4ccc(Cl)cc4F)c3C2)CC1` [Example 13-13, 2-(1-(2-(1-(4-Chloro-2-fluorobenzyl)-3-(trifluoromethyl)-4,5-dihydro-1H-pyrazolo[3,4-c]pyridin-6(7H)-yl)-2-oxoethyl)piperidin-4-yl)acetic acid TFA salt], the IC50 is at most 100 nM.

For `O=C(O)C1CCN(CC(=O)N2CCc3c(C(F)(F)F)nn(Cc4ccc(Cl)cc4F)c3C2)CC1` [Example 13-2, 1-(2-(1-(4-Chloro-2-fluorobenzyl)-3-(trifluoromethyl)-4,5-dihydro-1H-pyrazolo[3,4-c]pyridin-6(7H)-yl)-2-oxoethyl)piperidine-4-carboxylic acid], the IC50 is at most 100 nM.

For the molecule `CC1(C(=O)O)CCC(CC(=O)N2CCc3c(C(F)(F)F)nn(Cc4ccc(F)cc4)c3C2)CC1` (stereo not drawn) [Example 6-11, 4-(2-(1-(4-Fluorobenzyl)-3-(trifluoromethyl)-4,5-dihydro-1H-pyrazolo[3,4-c]pyridin-6(7H)-yl)-2-oxoethyl)-1-methylcyclohexanecarboxylic acid], the IC50 is at most 100 nM.

Turning to `CCOC(=O)[C@H]1CC[C@H](CC(=O)N2CCc3c(C(F)(F)F)nn(Cc4ccc(C)cc4)c3C2)CC1` [Example 1-25, trans-Ethyl 4-(2-(1-(4-methylbenzyl)-3-(trifluoromethyl)-4,5-dihydro-1H-pyrazolo[3,4-c]pyridin-6(7H)-yl)-2-oxoethyl)cyclohexanecarboxylate], the IC50 is at most 100 nM.

For the molecule `N[C@H]1CC[C@H](CC(=O)N2CCc3c(C(F)(F)F)nn(Cc4ccc(Cl)cc4F)c3C2)CC1` [Example 9-19, 2-(trans-4-aminocyclohexyl)-1-(1-(4-chloro-2-fluorobenzyl)-3-(trifluoromethyl)-4,5-dihydro-1H-pyrazolo[3,4-c]pyridin-6(7H)-yl)ethanone TFA salt], the IC50 is at most 100 nM.

For the molecule `N#CC1CCN(CC(=O)N2CCc3c(C(F)(F)F)nn(Cc4ccc(F)cc4)c3C2)C1` (stereo not drawn) [Example 12-11, 1-(2-(1-(4-Fluorobenzyl)-3-(trifluoromethyl)-4,5-dihydro-1H-pyrazolo[3,4-c]pyridin-6(7H)-yl)-2-oxoethyl)pyrrolidine-3-carbonitrile TFA salt], the IC50 was at most 100 nM.

In the case of `O=C(O)[C@H]1C2C3C[C@@H]1C(CC(=O)N1CCc4c(C(F)(F)F)nn(Cc5ccc(Cl)cc5F)c4C1)C32` (stereo partly drawn) [Example 6-16, (3R,4R)-5-(2-(1-(4-Chloro-2-fluorobenzyl)-3-(trifluoromethyl)-4,5-dihydro-1H-pyrazolo[3,4-c]pyridin-6(7H)-yl)-2-oxoethyl)tricyclo[2.2.1.02,6]heptane-3-carboxylic acid], the IC50 is at most 100 nM.

Regarding `CCOC(=O)[C@H]1CC[C@H](CC(=O)N2CCc3c(C(F)(F)F)nn(Cc4cccs4)c3C2)CC1` [Example 1-46, trans-Ethyl-4-(2-oxo-2-(1-(thiophen-2-ylmethyl)-3-(trifluoromethyl)-4,5-dihydro-1H-pyrazolo[3,4-c]pyridin-6(7H)-yl)ethyl)cyclohexanecarboxylate], the IC50 is at most 100 nM.

Regarding `O=C(O)C1CC2CN(CC(=O)N3CCc4c(C(F)(F)F)nn(Cc5ccc(Cl)cc5F)c4C3)CC2C1` (stereo not drawn) [Example 13-9, 2-(2-(1-(4-Chloro-2-fluorobenzyl)-3-(trifluoromethyl)-4,5-dihydro-1H-pyrazolo[3,4-c]pyridin-6(7H)-yl)-2-oxoethyl)octahydrocyclopenta[c]pyrrole-5-carboxylic acid TFA salt], the IC50 is at most 100 nM.
